# Source: ChEMBL document CHEMBL5696442, “Discovery of type II inhibitors of TGFβ-activated kinase 1 (TAK1) and mitogen-activated protein kinase kinase kinase kinase 2 (MAP4K2)” (J Med Chem, 2015)
# Tests used:
# [1] = biological target: PKC alpha and beta-2 (Homo sapiens) (UniProt P17252+P05771); assay: Inhibition of PKCalpha/beta K2 labeling site in human Huh-7 cells at 1 uM by KiNativ Profiling analysis relative to control; format: cell-based
# [2] = biological target: Interferon-induced, double-stranded RNA-activated protein kinase (Homo sapiens) (UniProt P19525); assay: Inhibition of PKR K2 labeling site in human Huh-7 cells at 10 uM by KiNativ Profiling analysis relative to control; format: cell-based
# Sequence of Interferon-induced, double-stranded RNA-activated protein kinase (Homo sapiens) (P19525 whole entry): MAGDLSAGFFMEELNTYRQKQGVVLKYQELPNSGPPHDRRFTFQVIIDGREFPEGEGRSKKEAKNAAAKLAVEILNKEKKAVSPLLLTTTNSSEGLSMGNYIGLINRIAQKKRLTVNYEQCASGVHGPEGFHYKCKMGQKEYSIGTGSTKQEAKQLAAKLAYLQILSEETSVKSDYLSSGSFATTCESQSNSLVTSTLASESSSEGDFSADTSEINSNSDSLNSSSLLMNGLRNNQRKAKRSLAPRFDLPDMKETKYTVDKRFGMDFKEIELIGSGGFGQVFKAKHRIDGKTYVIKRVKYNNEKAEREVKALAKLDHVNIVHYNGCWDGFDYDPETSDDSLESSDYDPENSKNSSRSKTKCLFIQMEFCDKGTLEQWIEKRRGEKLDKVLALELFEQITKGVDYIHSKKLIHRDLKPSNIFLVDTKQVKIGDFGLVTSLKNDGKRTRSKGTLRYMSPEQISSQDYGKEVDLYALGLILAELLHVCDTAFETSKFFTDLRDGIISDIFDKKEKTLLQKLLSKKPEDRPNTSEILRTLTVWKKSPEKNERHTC
# [3] = biological target: Tyrosine-protein kinase ABL1 (Homo sapiens, UniProt P00519); assay: Inhibition of ABL ACT labeling site in human A-375 cells at 0.05 uM by KiNativ Profiling analysis relative to control; format: cell-based
# Sequence of Tyrosine-protein kinase ABL1 (P00519 whole entry): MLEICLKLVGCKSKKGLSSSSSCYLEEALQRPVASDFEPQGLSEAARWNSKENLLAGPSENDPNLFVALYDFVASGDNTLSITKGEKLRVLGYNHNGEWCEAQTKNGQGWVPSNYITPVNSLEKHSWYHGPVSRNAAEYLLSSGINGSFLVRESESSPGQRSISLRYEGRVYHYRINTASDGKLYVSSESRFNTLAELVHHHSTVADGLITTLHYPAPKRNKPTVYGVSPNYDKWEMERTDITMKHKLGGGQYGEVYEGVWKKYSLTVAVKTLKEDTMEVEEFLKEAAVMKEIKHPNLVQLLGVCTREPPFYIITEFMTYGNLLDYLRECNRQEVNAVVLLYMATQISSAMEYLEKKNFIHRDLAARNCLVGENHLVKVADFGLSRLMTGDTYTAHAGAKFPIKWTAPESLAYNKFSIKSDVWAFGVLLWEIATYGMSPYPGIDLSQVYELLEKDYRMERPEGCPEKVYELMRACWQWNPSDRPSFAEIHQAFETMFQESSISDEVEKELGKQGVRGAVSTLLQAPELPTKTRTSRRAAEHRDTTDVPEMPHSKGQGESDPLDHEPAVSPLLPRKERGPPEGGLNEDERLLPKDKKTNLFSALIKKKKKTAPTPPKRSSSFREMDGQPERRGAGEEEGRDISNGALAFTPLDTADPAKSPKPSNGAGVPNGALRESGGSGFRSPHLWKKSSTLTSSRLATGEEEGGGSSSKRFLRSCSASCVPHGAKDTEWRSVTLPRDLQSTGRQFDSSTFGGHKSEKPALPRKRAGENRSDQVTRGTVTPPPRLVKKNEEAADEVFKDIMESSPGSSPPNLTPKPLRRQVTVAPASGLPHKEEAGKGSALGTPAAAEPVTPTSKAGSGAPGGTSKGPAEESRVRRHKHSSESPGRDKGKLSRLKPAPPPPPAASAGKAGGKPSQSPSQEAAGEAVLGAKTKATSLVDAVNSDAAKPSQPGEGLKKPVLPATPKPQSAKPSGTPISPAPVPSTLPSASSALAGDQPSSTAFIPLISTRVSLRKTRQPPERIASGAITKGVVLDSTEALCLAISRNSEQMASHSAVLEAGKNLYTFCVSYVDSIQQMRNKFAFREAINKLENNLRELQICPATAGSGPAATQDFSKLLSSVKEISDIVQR
# [4] = biological target: Tyrosine-protein kinase CSK (Homo sapiens, UniProt P41240); assay: Inhibition of CSK ACT labeling site harbouring VSDFGLTKEASSTQDTGKLPVKWTAPEALR in human A-375 cells at 5 uM by KiNativ Profiling analysis relative to control; format: cell-based
# Sequence of Tyrosine-protein kinase CSK (P41240 2-450 limits assumed): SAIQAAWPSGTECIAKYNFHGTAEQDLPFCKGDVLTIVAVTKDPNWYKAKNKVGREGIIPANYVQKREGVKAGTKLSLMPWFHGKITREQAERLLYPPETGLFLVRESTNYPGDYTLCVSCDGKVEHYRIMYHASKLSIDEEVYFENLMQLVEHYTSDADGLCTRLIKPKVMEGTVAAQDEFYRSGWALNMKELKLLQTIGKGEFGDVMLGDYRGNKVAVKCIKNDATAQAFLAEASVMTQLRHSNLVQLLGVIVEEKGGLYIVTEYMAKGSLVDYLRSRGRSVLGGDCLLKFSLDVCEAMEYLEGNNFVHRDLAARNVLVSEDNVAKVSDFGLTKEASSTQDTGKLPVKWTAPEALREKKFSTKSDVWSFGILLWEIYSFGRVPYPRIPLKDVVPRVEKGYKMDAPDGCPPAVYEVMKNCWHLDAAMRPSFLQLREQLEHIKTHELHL
# [5] = biological target: T1, Scaffold protein ILK (Homo sapiens) (UniProt Q13418); assay: Inhibition of ILK Protein Kinase Domain in human A-375 cells at 0.5 uM by KiNativ Profiling analysis relative to control; format: cell-based
# T1 sequence (whole entry): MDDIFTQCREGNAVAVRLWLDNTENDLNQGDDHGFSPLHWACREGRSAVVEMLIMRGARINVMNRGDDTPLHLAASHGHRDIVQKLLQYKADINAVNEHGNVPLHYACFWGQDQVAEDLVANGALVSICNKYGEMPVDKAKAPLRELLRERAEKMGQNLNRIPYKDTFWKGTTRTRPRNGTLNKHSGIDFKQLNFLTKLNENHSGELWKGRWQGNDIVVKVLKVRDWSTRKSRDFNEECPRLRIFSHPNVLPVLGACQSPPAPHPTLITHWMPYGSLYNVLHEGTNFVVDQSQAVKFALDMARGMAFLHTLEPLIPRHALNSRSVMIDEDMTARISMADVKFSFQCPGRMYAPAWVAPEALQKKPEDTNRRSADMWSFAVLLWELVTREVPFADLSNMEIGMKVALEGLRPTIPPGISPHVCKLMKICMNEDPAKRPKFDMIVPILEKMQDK
# [6] = biological target: Tyrosine-protein kinase Fes/Fps (Homo sapiens, UniProt P07332); assay: Inhibition of FES (unknown origin) at 10 uM by Ambit Kinomescan binding assay relative to control; values are per cent of control
# Sequence of Tyrosine-protein kinase Fes/Fps (P07332 whole entry): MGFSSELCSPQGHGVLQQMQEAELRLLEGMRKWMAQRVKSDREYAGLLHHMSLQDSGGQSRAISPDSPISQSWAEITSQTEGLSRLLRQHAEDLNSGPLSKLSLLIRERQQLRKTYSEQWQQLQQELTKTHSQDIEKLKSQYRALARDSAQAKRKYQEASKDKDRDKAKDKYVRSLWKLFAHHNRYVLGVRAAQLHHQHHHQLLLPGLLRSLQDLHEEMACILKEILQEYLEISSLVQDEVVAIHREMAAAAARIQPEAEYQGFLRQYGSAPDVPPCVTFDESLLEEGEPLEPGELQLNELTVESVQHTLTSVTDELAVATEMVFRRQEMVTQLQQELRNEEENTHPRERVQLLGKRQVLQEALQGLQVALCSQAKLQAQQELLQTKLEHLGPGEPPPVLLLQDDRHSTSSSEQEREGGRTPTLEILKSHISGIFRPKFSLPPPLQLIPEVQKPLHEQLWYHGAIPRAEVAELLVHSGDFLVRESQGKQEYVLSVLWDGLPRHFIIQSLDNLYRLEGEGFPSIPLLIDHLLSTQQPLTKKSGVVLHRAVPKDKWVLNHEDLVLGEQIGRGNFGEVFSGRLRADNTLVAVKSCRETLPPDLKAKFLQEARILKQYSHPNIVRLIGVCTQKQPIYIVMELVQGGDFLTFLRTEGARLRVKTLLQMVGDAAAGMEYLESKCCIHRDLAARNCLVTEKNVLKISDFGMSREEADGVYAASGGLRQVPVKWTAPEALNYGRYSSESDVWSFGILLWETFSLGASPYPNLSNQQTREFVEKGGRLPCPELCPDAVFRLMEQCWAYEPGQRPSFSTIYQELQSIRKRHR
# [7] = biological target: Mitogen-activated protein kinase 14 (Homo sapiens, UniProt Q16539); assay: Inhibition of p38a in human Huh-7 cells at 10 uM by KiNativ Profiling analysis relative to control; format: cell-based
# [8] = biological target: Discoidin domain-containing receptor 2 (Homo sapiens) (UniProt Q16832); assay: Inhibition of DDR2 (unknown origin) at 10 uM by Ambit Kinomescan binding assay relative to control; values are per cent of control
# [9] = biological target: Cyclin-dependent kinase 17 (Homo sapiens) (UniProt Q00537); assay: Inhibition of PCTAIRE2 Lys2 labeling site in human Huh-7 cell lysate at 1 uM by KiNativ Profiling analysis relative to control; format: subcellular
# Sequence of Cyclin-dependent kinase 17 (Homo sapiens) (Q00537 whole entry, looked up): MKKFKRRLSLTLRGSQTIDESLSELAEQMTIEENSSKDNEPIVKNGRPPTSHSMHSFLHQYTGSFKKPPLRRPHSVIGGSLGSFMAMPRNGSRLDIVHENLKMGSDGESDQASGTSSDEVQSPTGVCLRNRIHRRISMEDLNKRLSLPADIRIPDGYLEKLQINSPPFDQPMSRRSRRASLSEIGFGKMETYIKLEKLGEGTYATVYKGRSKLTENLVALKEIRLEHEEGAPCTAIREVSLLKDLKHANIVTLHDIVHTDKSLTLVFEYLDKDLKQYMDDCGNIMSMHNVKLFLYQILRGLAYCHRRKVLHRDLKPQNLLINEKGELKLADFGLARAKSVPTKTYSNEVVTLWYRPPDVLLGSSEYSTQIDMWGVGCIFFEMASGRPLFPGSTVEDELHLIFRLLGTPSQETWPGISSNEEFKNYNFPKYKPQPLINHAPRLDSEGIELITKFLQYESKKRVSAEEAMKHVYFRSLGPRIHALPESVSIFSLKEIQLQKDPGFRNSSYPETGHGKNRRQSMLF
# [10] = biological target: T2, Serine/threonine-protein kinase TBK1 (Homo sapiens) (UniProt Q9UHD2); assay: Inhibition of TBK1 Lys2 labeling site in human Huh-7 cell lysate at 1 uM by KiNativ Profiling analysis relative to control; format: subcellular
# T2 sequence (whole entry): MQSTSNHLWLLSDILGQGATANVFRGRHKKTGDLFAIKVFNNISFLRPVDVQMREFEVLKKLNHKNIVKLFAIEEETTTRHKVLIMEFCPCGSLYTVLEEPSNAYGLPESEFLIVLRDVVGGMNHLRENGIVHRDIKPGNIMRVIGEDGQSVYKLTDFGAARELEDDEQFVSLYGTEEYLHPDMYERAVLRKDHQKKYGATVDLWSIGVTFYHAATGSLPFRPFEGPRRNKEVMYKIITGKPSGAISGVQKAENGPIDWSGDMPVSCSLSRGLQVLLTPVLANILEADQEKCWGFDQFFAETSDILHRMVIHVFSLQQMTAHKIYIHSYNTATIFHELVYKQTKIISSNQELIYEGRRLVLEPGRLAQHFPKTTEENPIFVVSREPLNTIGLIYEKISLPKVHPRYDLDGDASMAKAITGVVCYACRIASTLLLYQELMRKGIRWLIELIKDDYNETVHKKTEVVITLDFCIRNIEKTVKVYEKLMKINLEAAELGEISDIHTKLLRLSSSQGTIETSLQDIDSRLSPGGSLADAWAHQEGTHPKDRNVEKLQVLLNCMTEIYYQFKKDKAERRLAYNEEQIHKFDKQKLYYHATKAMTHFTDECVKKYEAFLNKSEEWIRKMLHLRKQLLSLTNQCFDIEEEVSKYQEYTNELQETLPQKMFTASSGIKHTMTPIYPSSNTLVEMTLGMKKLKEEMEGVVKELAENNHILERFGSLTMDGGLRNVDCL
# [11] = biological target: Cyclin-dependent kinase 11B (Homo sapiens) (UniProt P21127); assay: Inhibition of CDK11 Lys2 labeling site in human Huh-7 cells at 1 uM by KiNativ Profiling analysis relative to control; format: cell-based
# [12] = biological target: T3, Mitogen-activated protein kinase kinase kinase 3 (Homo sapiens) (UniProt Q99759); assay: Inhibition of MAP3K3 Lys2 labeling site in human Huh-7 cell lysate at 1 uM by KiNativ Profiling analysis relative to control; format: subcellular
# T3 sequence (whole entry): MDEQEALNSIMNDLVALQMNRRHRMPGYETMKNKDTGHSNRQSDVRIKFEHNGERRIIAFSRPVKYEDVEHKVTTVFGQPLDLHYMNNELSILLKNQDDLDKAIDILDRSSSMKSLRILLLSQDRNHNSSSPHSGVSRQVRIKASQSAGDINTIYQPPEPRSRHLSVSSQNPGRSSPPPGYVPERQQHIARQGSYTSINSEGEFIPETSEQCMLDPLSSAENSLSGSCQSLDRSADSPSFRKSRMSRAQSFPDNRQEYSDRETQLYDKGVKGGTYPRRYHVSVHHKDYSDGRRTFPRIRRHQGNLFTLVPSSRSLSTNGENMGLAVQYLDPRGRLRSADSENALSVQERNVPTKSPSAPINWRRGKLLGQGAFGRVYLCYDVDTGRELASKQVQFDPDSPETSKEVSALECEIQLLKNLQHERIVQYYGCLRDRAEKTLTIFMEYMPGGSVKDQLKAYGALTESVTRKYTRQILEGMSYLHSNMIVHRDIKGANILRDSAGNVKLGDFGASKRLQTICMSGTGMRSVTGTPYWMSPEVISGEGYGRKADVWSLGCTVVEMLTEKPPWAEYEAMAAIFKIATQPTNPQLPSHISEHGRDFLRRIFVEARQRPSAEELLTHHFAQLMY
# Sequence of PKC alpha and beta-2 (Homo sapiens) (P05771 whole entry, looked up): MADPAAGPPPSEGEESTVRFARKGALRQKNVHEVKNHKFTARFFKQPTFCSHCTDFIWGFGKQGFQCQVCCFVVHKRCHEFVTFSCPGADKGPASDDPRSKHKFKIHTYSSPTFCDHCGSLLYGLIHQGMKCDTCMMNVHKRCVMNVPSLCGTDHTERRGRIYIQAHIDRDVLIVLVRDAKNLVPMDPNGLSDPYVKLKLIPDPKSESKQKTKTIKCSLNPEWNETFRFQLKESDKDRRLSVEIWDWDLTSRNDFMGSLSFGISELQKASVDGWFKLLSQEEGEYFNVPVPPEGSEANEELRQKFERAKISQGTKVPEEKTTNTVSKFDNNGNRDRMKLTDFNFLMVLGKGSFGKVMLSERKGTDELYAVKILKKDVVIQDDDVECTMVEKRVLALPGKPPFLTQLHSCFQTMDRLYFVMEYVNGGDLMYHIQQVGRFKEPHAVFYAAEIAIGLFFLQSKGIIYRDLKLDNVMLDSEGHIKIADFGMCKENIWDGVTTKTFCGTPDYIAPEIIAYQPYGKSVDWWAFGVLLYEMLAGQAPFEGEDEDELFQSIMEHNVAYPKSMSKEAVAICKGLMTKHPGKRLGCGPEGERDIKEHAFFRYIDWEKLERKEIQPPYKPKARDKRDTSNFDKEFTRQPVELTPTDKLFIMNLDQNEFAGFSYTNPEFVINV
SMILES,inhibition [1],inhibition [2],inhibition [3],inhibition [4],inhibition [5],percent of control [6],inhibition [7],percent of control [8],inhibition [9],inhibition [10],inhibition [11],inhibition [12]
CCN1CCN(Cc2ccc(NC(=O)c3ccc(C)c(Oc4ccnc5[nH]ccc45)c3)cc2C(F)(F)F)CC1,8.8%,7.9%,88.5%,57.7%,1.9%,2.2%,98.5%,5.1%,–,–,–,–
CNc1cc(Oc2cc(C(=O)Nc3cc(N4CCN(C)CC4)cc(C(F)(F)F)c3)ccc2C)ncn1,–,–,–,–,–,–,–,–,-2.1%,-5.8%,25.8%,1.9%
